Results on 21 molecules are retold here after BindingDB's records for doi:10.1016/j.bmcl.2010.09.011 (The University of Tokyo, 2010).

The nature of assay [1]: Vitamin-D activity at VDR receptor in human HL60 cells assessed as induction of cell differentiation by NBT reduction assay.
A short description of assay [2]: Antiandrogen activity against androgen receptor in androgen-dependent mouse SC3 cells assessed as inhibition of testosterone-induced cell proliferation by WST1 assay. (In general: Tetrazolium dyes change colour on reduction, which living cells bring about.)

Bounds are passed on as bounds.

The EC50 is the concentration giving half of the maximal effect. The IC50 is the concentration that gives 50% inhibition. `CCC(CC)(c1ccc(OCC(=O)C23CC4CC(CC(C4)C2)C3)c(C)c1)c1ccc(OC[C@@H](O)CO)c(C)c1`: the EC50 in assay [1] was greater than 30 µM. In assay [2], the IC50 was greater than 30 µM. With `CCC(CC)(c1ccc(OCC(O)C23CC4CC(CC(C4)C2)C3)c(C)c1)c1ccc(OC[C@@H](O)CO)c(C)c1` (stereo not given in full), in assay [1], the EC50 was found to be 22 µM. Besides, the IC50 in assay [2] is greater than 10 µM. As for `CCC(CC)(c1ccc(OC[C@@H](O)CO)c(C)c1)c1ccc(O[C@@H]2CN(Cc3ccccc3)C[C@@H]2O)c(C)c1` [(2S)-3-(4-(3-(4-(1-benzyl-4-hydroxypyrrolidin-3-yloxy)-3-methylphenyl)pentan-3-yl)-2-methylphenoxy)propane-1,2-diol], in assay [1], the EC50 is greater than 30 µM. In assay [2], the IC50 was greater than 10 µM.

With `CCC(CC)(c1ccc(OCC(O)C(C)(C)Cc2ccc3ccccc3c2)c(C)c1)c1ccc(OC[C@@H](O)CO)c(C)c1` (stereo partly drawn) [(2S)-3-(4-(3-(4-(2-hydroxy-3,3-dimethyl-4-(naphthalen-2-yl)butoxy)-3-methylphenyl)pentan-3-yl)-2-methylphenoxy)propane-1,2-diol], in assay [1], the EC50 is greater than 30 µM. Moreover, in assay [2], the IC50 was greater than 10 µM. For `CCC(CC)(c1ccc(OCC(O)C(C)(C)Cc2ccccc2)c(C)c1)c1ccc(OC[C@@H](O)CO)c(C)c1` (stereo partly drawn) [(2S)-3-(4-(3-(4-(2-hydroxy-3,3-dimethyl-4-phenylbutoxy)-3-methylphenyl)pentan-3-yl)-2-methylphenoxy)propane-1,2-diol], the EC50 in assay [1] came out at 11 µM. Also, the IC50 in assay [2] was 1.7 µM. Consider `CCC(CC)(c1ccc(OCC(O)C(C)(C)CCc2ccccc2)c(C)c1)c1ccc(OC[C@@H](O)CO)c(C)c1` (stereo partly drawn) [(2S)-3-(4-(3-(4-(2-hydroxy-3,3-dimethyl-5-phenylpentyloxy)-3-methylphenyl)pentan-3-yl)-2-methylphenoxy)propane-1,2-diol], for which the EC50 in assay [1] was 7.1 µM. The IC50 in assay [2] was determined as 0.88 µM. As for `CCC(CC)(c1ccc(OCC(O)C(C)(C)CCCc2ccccc2)c(C)c1)c1ccc(OC[C@@H](O)CO)c(C)c1` (stereo partly drawn) [(2S)-3-(4-(3-(4-(2-hydroxy-3,3-dimethyl-6-phenylhexyloxy)-3-methylphenyl)pentan-3-yl)-2-methylphenoxy)propane-1,2-diol], the EC50 in assay [1] is 3.6 µM. The IC50 in assay [2] was found to be 0.13 µM. Turning to `CCC(CC)(c1ccc(OCC(O)C(C)(C)CCCCc2ccccc2)c(C)c1)c1ccc(OC[C@@H](O)CO)c(C)c1` (stereo partly drawn) [(2S)-3-(4-(3-(4-(2-hydroxy-3,3-dimethyl-7-phenylheptyloxy)-3-methylphenyl)pentan-3-yl)-2-methylphenoxy)propane-1,2-diol], the EC50 in assay [1] was greater than 30 µM. In assay [2], the IC50 is greater than 10 µM. Turning to `CCC(CC)(c1ccc(OC[C@@H](O)CO)c(C)c1)c1ccc(OC[C@H](O)C(C)(C)C)c(C)c1` [(2S)-3-{4-[1-ethyl-1-(4-{[(2R)-2-hydroxy-3,3-dimethylbutyl]oxy}-3-methylphenyl)propyl]-2-methylphenoxy}propane-1,2-diol], the IC50 in assay [2] is 0.003 µM. Same read-out and setting: under `CCC(CC)(c1ccc(OCC(=O)C(C)(C)C)c(C)c1)c1ccc(OC[C@H](O)CO)c(C)c1` [(R)-1-(4-(3-(4-(2,3-dihydroxypropoxy)-3-methylphenyl)pentan-3-yl)-2-methylphenoxy)-3,3-dimethylbutan-2-one] stands 0.015 µM. On the same count and under the same terms, the result for `CCC(CC)(c1ccc(OC[C@H](O)CO)c(C)c1)c1ccc(OC[C@H](O)C(C)(C)C)c(C)c1` [(R)-3-(4-(3-(4-((R)-2-hydroxy-3,3-dimethylbutoxy)-3-methylphenyl)pentan-3-yl)-2-methylphenoxy)propane-1,2-diol] reads 0.014 µM. Same read-out and setting: under `CCC(CC)(c1ccc(OC[C@H](O)CO)c(C)c1)c1ccc(OC[C@@H](O)C(C)(C)C)c(C)c1` [(R)-3-(4-(3-(4-((S)-2-hydroxy-3,3-dimethylbutoxy)-3-methylphenyl)pentan-3-yl)-2-methylphenoxy)propane-1,2-diol] stands 0.068 µM. As to `CCC(CC)(c1ccc(OCC(=O)C(C)(C)Cc2ccc3ccccc3c2)c(C)c1)c1ccc(OC[C@@H](O)CO)c(C)c1` [(S)-1-(4-(3-(4-(2,3-dihydroxypropoxy)-3-methylphenyl)pentan-3-yl)-2-methylphenoxy)-3,3-dimethyl-4-(naphthalen-2-yl)butan-2-one], the EC50 in assay [1] is greater than 30 µM. The IC50 in assay [2] was greater than 30 µM. As to `CCC(CC)(c1ccc(OCC(=O)C(C)(C)Cc2ccccc2)c(C)c1)c1ccc(OC[C@@H](O)CO)c(C)c1` [(S)-1-(4-(3-(4-(2,3-dihydroxypropoxy)-3-methylphenyl)pentan-3-yl)-2-methylphenoxy)-3,3-dimethyl-4-phenylbutan-2-one], the EC50 in assay [1] turned out to be 21 µM. Also, the IC50 in assay [2] was greater than 10 µM.

In the case of `CCC(CC)(c1ccc(OCC(=O)C(C)(C)CCc2ccccc2)c(C)c1)c1ccc(OC[C@@H](O)CO)c(C)c1` [(S)-1-(4-(3-(4-(2,3-dihydroxypropoxy)-3-methylphenyl)pentan-3-yl)-2-methylphenoxy)-3,3-dimethyl-5-phenylpentan-2-one], in assay [1], the EC50 was found to be 23 µM. Moreover, the IC50 in assay [2] turned out to be 1.1 µM. In the case of `CCC(CC)(c1ccc(OCC(=O)C(C)(C)CCCc2ccccc2)c(C)c1)c1ccc(OC[C@@H](O)CO)c(C)c1` [(S)-1-(4-(3-(4-(2,3-dihydroxypropoxy)-3-methylphenyl)pentan-3-yl)-2-methylphenoxy)-3,3-dimethyl-6-phenylhexan-2-one], the EC50 in assay [1] was greater than 30 µM. In assay [2], the IC50 was found to be 9.8 µM. Taken in the same sequence, the figures for `CCC(CC)(c1ccc(OCC(=O)C(C)(C)CCCCc2ccccc2)c(C)c1)c1ccc(OC[C@@H](O)CO)c(C)c1` [(S)-1-(4-(3-(4-(2,3-dihydroxypropoxy)-3-methylphenyl)pentan-3-yl)-2-methylphenoxy)-3,3-dimethyl-7-phenylheptan-2-one] were greater than 30 µM and greater than 30 µM. As to `CCC(CC)(c1ccc(OCC(=O)C(C)(C)C)c(C)c1)c1ccc(OC[C@@H](O)CO)c(C)c1` [(S)-1-(4-(3-(4-(2,3-dihydroxypropoxy)-3-methylphenyl)pentan-3-yl)-2-methylphenoxy)-3,3-dimethylbutan-2-one], the IC50 in assay [2] is 0.032 µM.

In the case of `CCC(CC)(c1ccc(OC[C@@H](O)CO)c(C)c1)c1ccc(OC[C@@H](O)C(C)(C)C)c(C)c1` [(S)-3-(4-(3-(4-((S)-2-hydroxy-3,3-dimethylbutoxy)-3-methylphenyl)pentan-3-yl)-2-methylphenoxy)propane-1,2-diol], the IC50 in assay [2] was determined as 0.013 µM. On to `CCC(CC)(c1ccc(OCC(=O)C(C)(C)C)c(C)c1)c1ccc(OCC(O)CO)c(C)c1` (stereo not given) [LG190178], for which, in assay [1], the EC50 worked out at 0.09 µM. Consider `CCC(CC)(c1ccc(OC[C@@H](O)CO)c(C)c1)c1ccc(O[C@@H]2CN(C(=O)OCc3ccccc3)C[C@@H]2O)c(C)c1` [benzyl 3-(4-(3-(4-((S)-2,3-dihydroxypropoxy)-3-methylphenyl)pentan-3-yl)-2-methylphenoxy)-4-hydroxypyrrolidine-1-carboxylate], for which the EC50 in assay [1] is greater than 30 µM. The IC50 in assay [2] was greater than 30 µM.
